Measurements taken from PMC12388523, “Flavonoids and Sesquiterpene Lactones from Lychnophora ericoides (Arnica-Do-Cerrado) and Their In Vitro Effects on Multiple Myeloma and Acute Myeloid Leukemia” (Metabolites, 2025).

What was measured:
Format in all cases: cell-based
[1] = test system: MOLM-13 cells; assay: Proliferation, [3H]-thymidine uptake, MOLM-13; details: for mean percentage of proliferation ± SE: 72 h, relative to control
Procedure: [The source words this procedure for another cell line and reports this cell line under the same test.] (§1) Acute myeloid leukemia cell line HL-60 and multiple myeloma cell lines AMO-1 and KMS-12-PE were obtained from the German Collection of Microorganisms and Cell Cultures (DSMZ), Braunschweig, Germany, and non-tumorigenic stromal cell line HS-5 was acquired from the American Type Culture Collection (ATCC, Manassas, VA, USA). All cell lines were cultured in RPMI 1640 medium without phenol red (Pan Biotech, Aidenbach, Germany), supplemented with 2 mM glutamine, 100 U/mL penicillin, 100 µg/mL streptomycin (Sigma-Aldrich, St. Louis, MO, USA), and 10% fetal bovine serum (FBS Maximus, Catus Biotech GmbH, Tutzing, Germany) at 37 °C in a humidified atmosphere of 5% CO2/95% air. Cells were fed twice weekly. Logarithmically growing cells were resuspended at 1 × 10^5 cells/mL, plated in triplicate in round-bottom 96-well plates (100 µL per well; Falcon, Becton Dickinson, Franklin Lakes, NJ, USA), and incubated at 37 °C in 5% CO2/95% air for 2 h. Subsequently, the compounds were adjusted in the cell culture medium to reach the final concentrations in a total volume of 150 µL and incubated for an additional 72 h. Cell proliferation was assessed by [^3H]-thymidine uptake. Each well was exposed to 2 µCi [^3H]-thymidine (Hartmann Analytic, Braunschweig, Germany) during the final 12–16 h of incubation. Cells were harvested using a semi-automated device, and [^3H]-thymidine incorporation (expressed in counts per minute, cpm) was measured with a scintillation counter (MicroBeta TriLux, PerkinElmer, Waltham, MA, USA). Metabolic activity was assessed by resazurin staining. Resazurin (Carl Roth, Karlsruhe, Germany) was dissolved in distilled water at a concentration of 0.1 mg/mL, and 15 µL of this solution was added to each well, followed by a 2 h incubation at 37 °C. Relative fluorescence units (RFUs) were measured using a Synergy H1 plate reader equipped with a 560 nm excitation/590 nm emission filter set (BioTek; Agilent, Santa Clara, CA, USA). Proliferation and metabolic activity in the absence of compounds were defined as 100% (control), and the values for compound-treated samples were expressed as percentages relative to the control. Selectivity indices were calculated by dividing the IC50 value of each compound against HS-5 cells through the IC50 values against the investigated cell lines.
(§2) The Wilcoxon Rank Sum Test was used to analyze proliferation and metabolic activity in the absence and presence of varying compound concentrations (NCSS 2007 software, version 07.1.2, Kaysville, UT, USA). A p-value < 0.05 was considered statistically significant. IC50 values were calculated using GraphPad Prism 10.1.2. This software reports 95% confidence intervals instead of standard errors. […] Nonetheless, the figures clearly illustrate the IC50 values due to the narrow concentration range tested.

[2] = test system: KMS-12-PE cells; assay: Metabolic activity, resazurin staining, KMS-12-PE; details: KMS-12 PE; for Metabolic activity, mean percentage ± SE: 72 h, relative to control
Procedure: as §1, §2
(§3) Proliferation inhibition often leads to cell death. Therefore, the cytotoxic activity of the compounds was further evaluated using a modified 3-(4,5-dimethylthiazol-2-yl)-2,5-diphenyltetrazolium bromide (MTT) assay, the resazurin (Alamar Blue) assay. Metabolically active cells reduce the non-fluorescent dye resazurin to the fluorescent dye resorufin via mitochondrial reductase activity, which correlates with cell viability. In the first step the metabolic activity of the four isolated flavonoids was investigated, showing a dose-dependent reduction, but to a much lower extent than in the proliferation assays (Table A2). In fact, only 7,3′,4′-trimethoxymyricetin (2) inhibited the metabolic activity of all four cell lines by more than 50% at a concentration of 100 µM.

[3] = test system: HL-60 cells; assay: Metabolic activity, resazurin staining, HL-60; details: for Metabolic activity, mean percentage ± SE: 72 h, relative to control
Procedure: as §1, §2, §3

[4] = test system: AMO-1 cells; assay: Proliferation, [3H]-thymidine uptake, AMO-1; details: 72 h, relative to control
Procedure: as §1, §2

[5] = test system: KMS-12-PE cells; assay: Proliferation, [3H]-thymidine uptake, KMS-12-PE; details: KMS-12 PE, 72 h, relative to control
Procedure: as §1, §2

[6] = test system: HL-60 cells; assay: Proliferation, [3H]-thymidine uptake, HL-60; details: for mean percentage of proliferation ± SE: 72 h, relative to control
Procedure: as §1, §2

[7] = test system: MOLM-13 cells; assay: Metabolic activity, resazurin staining, MOLM-13; details: for Metabolic activity, mean percentage ± SE: 72 h, relative to control
Procedure: [The source words this procedure for another cell line and reports this cell line under the same test.] as §1, §2, §3

[8] = test system: AMO-1 cells; assay: Metabolic activity, resazurin staining, AMO-1; details: for Metabolic activity, mean percentage ± SE: 72 h, relative to control
Procedure: as §1, §2, §3

Structure (SMILES) | mean percentage of proliferation ± SE ([1]; MOLM-13, 25 µM) | mean percentage of proliferation ± SE ([1]; MOLM-13, 50 µM) | mean percentage of proliferation ± SE ([1]; MOLM-13, 100 µM) | Metabolic activity, mean percentage ± SE ([2]; 25 µM) | Metabolic activity, mean percentage ± SE ([2]; 50 µM) | Metabolic activity, mean percentage ± SE ([2]; 100 µM) | Metabolic activity, mean percentage ± SE ([3]; HL-60, 25 µM) | Metabolic activity, mean percentage ± SE ([3]; HL-60, 50 µM) | Metabolic activity, mean percentage ± SE ([3]; HL-60, 100 µM) | mean percentage of proliferation ± SE ([4]; AMO-1, 25 µM) | mean percentage of proliferation ± SE ([4]; AMO-1, 50 µM) | mean percentage of proliferation ± SE ([4]; AMO-1, 100 µM) | mean percentage of proliferation ± SE ([5]; 25 µM) | mean percentage of proliferation ± SE ([5]; 50 µM) | mean percentage of proliferation ± SE ([5]; 100 µM) | mean percentage of proliferation ± SE ([6]; HL-60, 25 µM) | mean percentage of proliferation ± SE ([6]; HL-60, 50 µM) | mean percentage of proliferation ± SE ([6]; HL-60, 100 µM) | Metabolic activity, mean percentage ± SE ([7]; MOLM-13, 25 µM) | Metabolic activity, mean percentage ± SE ([7]; MOLM-13, 50 µM) | also measured
COc1ccc(-c2cc(=O)c3c(O)cc(O)cc3o2)cc1O [Compound 3, diosmetin] | 36.5 ± 2.9 % | 11.7 ± 1.6 % | 1.1 ± 0.4 % | 93.7 ± 4.9% | 81.3 ± 3.2 % | 57.2 ± 4.7 % | 93.2 ± 3.1 % | 84.5 ± 2.2 % | 56.7 ± 3.5 % | 65.9 ± 9.4 % | 42.0 ± 5.0 % | 9.0 ± 0.8 % | 74.5 ± 6.9 % | 38.2 ± 4.1 % | 16.4 ± 2.4 % | 71.4 ± 1.5 % | 59.9 ± 3.6 % | 19.7 ± 3.7 % | 62.5 ± 10.1 % | 51.2 ± 7.2 % | inhibition of metabolic activity ([7]; MOLM-13, 100 µM): induced antimetabolic activity; Metabolic activity, mean percentage ± SE ([7]; MOLM-13, 100 µM): 41.2 ± 5.0 %; Metabolic activity, mean percentage ± SE ([8]; AMO-1, 25 µM): 95.4 ± 2.4 %; Metabolic activity, mean percentage ± SE ([8]; AMO-1, 50 µM): 76.8 ± 3.7 %; Metabolic activity, mean percentage ± SE ([8]; AMO-1, 100 µM): 54.5 ± 5.5 %
COc1cc(O)c2c(=O)c(O)c(-c3cc(O)c(OC)c(OC)c3)oc2c1 [Compound 2, 7,3′,4′-trimetoxymyricetin] | 77.8 ± 9.6% | 35.4 ± 4.2 % | 3.8 ± 1.0 % | 87.9 ± 2.6 % | 62.7 ± 2.6 % | 44.5 ± 4.0 % | 93.2 ± 7.8% | 79.6 ± 7.0 % | 32.1 ± 2.8 % | 69.2 ± 5.3 % | 27.0 ± 4.0 % | 4.8 ± 1.0 % | 64.5 ± 2.9 % | 16.1 ± 0.9 % | 2.6 ± 0.4 % | 69.8 ± 2.5 % | 36.7 ± 2.5 % | 2.5 ± 0.5 % | 77.8 ± 2.1 % | 65.4 ± 3.6 % | inhibition at 100 µM ([2]; Homo sapiens, 100 µM): > 50%; inhibition at 100 µM ([3]; Homo sapiens, HL-60, 100 µM): > 50%; inhibition at 100 µM ([7]; Homo sapiens, MOLM-13, 100 µM): > 50%; Metabolic activity, mean percentage ± SE ([7]; MOLM-13, 100 µM): 48.9 ± 5.5 %; Metabolic activity, mean percentage ± SE ([8]; AMO-1, 25 µM): 81.3 ± 6.3 %; Metabolic activity, mean percentage ± SE ([8]; AMO-1, 50 µM): 68.9 ± 4.1 %; Metabolic activity, mean percentage ± SE ([8]; AMO-1, 100 µM): 41.8 ± 6.4 %; inhibition at 100 µM ([8]; Homo sapiens, AMO1, AMO-1, 100 µM): > 50%
COc1cc(O)c2c(=O)c(OC)c(-c3ccc(O)c(O)c3)oc2c1 [Compound 4, 3,7-di-O-methylquercetin] | 32.6 ± 5.5 % | 13.1 ± 2.7 % | 8.8 ± 3.1 % | 103.0 ± 9.9% | 92.4 ± 8.7% | 82.4 ± 7.7% | 80.8 ± 5.9 % | 69.8 ± 5.1 % | 69.7 ± 5.5 % | 57.5 ± 9.2 % | 29.7 ± 4.1 % | 19.2 ± 5.1 % | 80.9 ± 3.2 % | 50.4 ± 5.2 % | 29.7 ± 6.0 % | 37.6 ± 7.7 % | 23.3 ± 6.5 % | 18.5 ± 4.0 % | 77.9 ± 4.3 % | 63.6 ± 6.4 % | inhibition at 10 µM ([1]; Homo sapiens, MOLM-13, 10 µM): > 50%; mean percentage of proliferation ± SE ([1]; MOLM-13, 10 µM): 42.3 ± 11.2 %; Metabolic activity, mean percentage ± SE ([2]; 10 µM): 110.1 ± 10.2%; Metabolic activity, mean percentage ± SE ([3]; HL-60, 10 µM): 86.1 ± 6.1 %; mean percentage of proliferation ± SE ([4]; AMO-1, 10 µM): 73.3 ± 11.4 %; mean percentage of proliferation ± SE ([5]; 10 µM): 89.0 ± 5.2%; mean percentage of proliferation ± SE ([6]; HL-60, 10 µM): 45.9 ± 8.9 %; inhibition at 10 µM ([6]; Homo sapiens, HL-60, 10 µM): > 50%; Metabolic activity, mean percentage ± SE ([7]; MOLM-13, 10 µM): 81.1 ± 4.2 %; Metabolic activity, mean percentage ± SE ([7]; MOLM-13, 100 µM): 61.7 ± 6.9 %; Metabolic activity, mean percentage ± SE ([8]; AMO-1, 10 µM): 91.5 ± 9.9%; Metabolic activity, mean percentage ± SE ([8]; AMO-1, 25 µM): 70.2 ± 10.8 %; Metabolic activity, mean percentage ± SE ([8]; AMO-1, 50 µM): 57.1 ± 10.5 %; inhibition of metabolic activity ([8]; AMO-1, 100 µM): induced antimetabolic activity; Metabolic activity, mean percentage ± SE ([8]; AMO-1, 100 µM): 46.9 ± 11.7 %
